Data from patent US8546090B2, “SIRT4 activities” (Massachusetts Institute of Technology, priority 2005, dated 2013).

How the values were obtained:
[1] = system: bovine recombinant glutamate dehydrogenase; experiment: Glutamate dehydrogenase assay after incubation with Sirt4; format: biochemical
Method: FIG. 6. Glutamate dehydrogenase inhibition by Sirt4. FIG. 6A. The enzymatic activity of glutamate dehydrogenase ([…]) was measured before (open bars, T=0) after a 60 min incubation (filled bars, T=60) at 37° C. with hSirt4-FLAG (50 ng) or a buffer control in the presence of 1 mM NAD^+. Experiments were replicated 3-5 times. FIG. 6B. Inhibition of glutamate dehydrogenase by Sirt4 requires 1 mM NAD^+. Glutamate dehydrogenase (50 mg) was incubated with Sirt4 at 37° C. in the presence (pink) or absence (blue) of 1 mM NAD^+. Aliquots (1 ml) were removed at T=0, 5, 15, 30, 60, or 120 min, and glutamate dehydrogenase activity was measured for each time point. FIG. 6C. The activity of glutamate dehydrogenase was measure in mitochondrial lysates (30 mg) from control or Sirt4 RNAi cells. Experiments were performed 3-5 times using cell lines from two separate infections.
Glutamate dehydrogenase (50 μg; Ultrapure from Sigma) was incubated with or without Sirt4 (10 ng) in […] of ADP-ribosylation buffer (50 mM Tris pH 8.0, 10 mM DTT, 150 mM NaCl) in the presence or absence of 1 mM NAD or 1 mM nicotinamide at 37° C. for the indicated times. Then, an aliquot of the reaction was assayed for glutamate dehydrogenase activity. Activity assays were performed at 25° C. using a BioSpec-1601 spectrophotometer (Shimadzu Scientific Instruments, Inc; Braintree, Mass.) at A340 based on the oxidation of NADH as described previously. Data was collected for 5-10 min. at 10 sec. intervals. At the end of each experiment, less than 10% of substrates had been depleted.
Sirt4 or a buffer control was incubated with bovine recombinant glutamate dehydrogenase for one hour in the presence of NAD. Then, the glutamate dehydrogenase activity was assessed by monitoring the disappearance of NADH (A340). […] To verify that this inhibition was dependent on the availability of NAD^+, we incubated Sirt4 with or without NAD^+ with glutamate dehydrogenase for various times. […]

MIN6 cells = experiment: Insulin secretion assay in MIN6 cells (ELISA); format: cell-based, mouse
Method: FIG. 4. The role of Sirt4 in insulin secretion. FIG. 4A. The levels of Sirt4 were reduced in MIN6 cells infected with virus that contained Sirt4 RNAi sequences compared to cells infected with pSUPER. FIG. 4B. Insulin secretion was measured from control or RNAi MIN6 cells. Cells were pre-incubated with KRB buffer containing 3 mM glucose, then cells were shifted to buffer containing either 3 mM (open bars) or 16.7 mM glucose (filled bars). Insulin in the buffer was measured by ELISA after a 45 min incubation at 37° C. FIG. 4C. Insulin remaining inside cells was measured at the end of the insulin secretion assays by ELISA.
FIG. 7. Elevated glutamate dehydrogenase activity contributes to increased insulin secretion in Sirt4 RNAi cells. FIG. 7A. MIN6 cells were co-infected with RNAi for Sirt4 and glutamate dehydrogenase, and protein levels were compared to control infections. FIG. 7B. Insulin secretion assays were performed in double-infected or control cells as described previously. FIG. 7C. Insulin secretion assays were performed in control or Sirt4 RNAi treated cells in the presence or absence of BCH, an activator of glutamate dehydrogenase.
MIN6 cells were plated in the wells of a 12-well plate at least 24-hours before secretion assays. […] Insulin concentration was measured by ELISA (Alpco Diagnostics; Windham, N.H.).

inhibition of glutamate dehydrogenase activity ([1]; after incubating for 12 hours) | inhibition of glutamate dehydrogenase activity ([1]; within 2 hours, in the presence of NAD+) | Compound | enzymatic activity of glutamate dehydrogenase ([1]; incubated one hour in the presence of NAD, versus buffer control) | insulin secretion with BCH and 16.7 mM glucose compared to 16.7 mM glucose alone (MIN6 cells; Sirt4 RNAi treated MIN6 cells) | insulin secretion with BCH and 16.7 mM glucose compared to 16.7 mM glucose alone (MIN6 cells; control MIN6 cells)
more than 90% | 50% | Sirt4: human Sirt4 with C-terminal FLAG, immunoprecipitated from 293T cells; ADP-ribosyltransferase | significantly reduced | – | –
– | – | NC1(C(=O)O)CC2CCC1C2 (centres unmarked) [BCH] | – | did not secrete more insulin | enhanced insulin secretion
